This note sets out measurements from patent US20120122870A1, “Treatment Of Ischemia-Reperfusion Injury” (MUSC FOUNDATION FOR RESEARCH DEVELOPMENT, priority 2009, published 2012).

“Also recorded” adds a separate entry of the source.

Experiment [1] deals with kidney ischemia-reperfusion in C57/Bl6 mice. Put plainly: Ischemia-reperfusion of the kidney (mild model), BUN and creatinine. The following applies: 50 mg/kg oral gavage. It is filed as in vivo. The protocol: ABC294640 reduces kidney damage following ischemia-reperfusion. Male C57/Bl6 mice (approximately 24 g) were first dosed with ABC294640 (50 mg/kg in 0.1 mL by oral gavage) or vehicle (0.1 mL in 0.375% Tween 80 in Phosphate-Buffered Saline), immediately followed by intraperitoneal injection of ketamine/xylazine for anesthesia. The procedure was performed on a heated surface using homeothermic pads to ensure the maintenance of animal body temperature. A midline incision was made and the two renal pedicles were located and clamped for 22 minutes or 25 minutes as indicated. Total blockage of the renal pedicle and thus artery was confirmed after several minutes as the kidney were seen to be dark red to purple in color, assuring correct clamp placement. […] One milliliter of pre-warmed (37° C.) sterile saline was instilled into the peritoneum at the time of closing using sutures for musculature and wound clips for the skin incision. Animals were maintained on homeothermic pads until awakening from anesthesia and post-operatively assessed for health.
Levels of blood urea nitrogen (BUN) were determined as an indicator of renal function. […] Therefore, the SK inhibitor substantially improves kidney function that persists for at least 3 days after drug administration.
ABC294640 reduces kidney damage following ischemia-reperfusion. Kidney ischemia-reperfusion was repeated as in Example 1, except that the duration of bilateral pedicle clamping was 25 minutes and animals were sacrificed 24 hours after surgery.
Ischemia-reperfusion of the kidney (mild model): Male C57/Bl6 mice (approximately 24 g) were first dosed with ABC294640 (50 mg/kg in 0.1 ml by oral gavage) or vehicle (0.1 ml in 0.375% Tween 80 in Phosphate-Buffered Saline), immediately followed by intraperitoneal injection of ketamine/xylazine for anesthesia. The procedure was performed on a heated surface using homeothermic pads to ensure the maintenance of animal body temperature. […] Animals were maintained on homethermic pads until awakening from anesthesia and post-operatively assessed for health.

Experiment [2] concerns severe kidney ischemia-reperfusion in mice. The experiment in a line: Ischemia-reperfusion of the kidney (severe model), survival, BUN and creatinine. It counts as in vivo. The protocol: ABC294640 promotes survival in a severe model of kidney damage. To evaluate the protective effects of ABC294640 in a more severe IR model, mice were treated with ABC294640 (50 mg/kg in 0.1 mL by oral gavage) or vehicle (0.1 ml in 0.375% Tween-80 in PBS), and then the right kidney was ligated and removed and the left kidney pedicle was clamped for 45 min before reperfusion. Animals were assessed daily for postoperative health, including scoring for weight loss, activity and appearance. Following severe IR, vehicle-treated mice consistently died or were sacrificed because of severe ill health on post-surgery Day 2 (FIG. 3). In marked contrast, mice that received 50 mg/kg ABC294640 preoperatively all survived the IR insult.
ABC294640 protects against renal failure in a severe model of kidney damage. Blood was drawn from the severe IR mice at sacrifice, and levels of blood urea nitrogen (BUN) and creatinine were determined as indicators of renal function (FIG. 4). As expected, serum creatinine and BUN levels were highly elevated in the vehicle-treated IR animals (clear bars) compared with sham animals (hatched bars), indicative of post-surgical renal failure.
Ischemia-reperfusion of the kidney (severe model): The irreversible model was performed in a similar manner to the reversible model described above with the exception that the right kidney pedicle was tied off and the kidney removed and the left kidney was clamped for 45 minutes.

The mark [3] stands for this setting: 25 minutes bilateral clamping, 24 hours after reperfusion.
[4] abbreviates: severe kidney IR, 48 hr (2 days) post-surgery.
Setting [5] is: severe kidney IR, post-surgery Day 10.

As for `O=C(NCc1ccncc1)C12CC3CC(C1)CC(c1ccc(Cl)cc1)(C3)C2` [ABC294640, 3-(4-chlorophenyl)-N-(pyridin-4-ylmethyl)adamantane-1-carboxamide], in experiment [1] (setting [3]), the “BUN levels vs vehicle” value was “significantly lower; also recorded: substantially lower” and the “creatinine levels vs vehicle” value is recorded as “significantly lower; also recorded: substantially lower”. In addition, in experiment [1] (bilateral renal pedicle clamping, 72 hours after reperfusion), the “BUN levels vs vehicle” value is listed as “significantly lower”. Moreover, the “survival after severe kidney IR” value in experiment [2] (50 mg/kg oral gavage preoperatively, right kidney removed, left pedicle clamped 45 min) is “all survived”. In addition, the “survival time after severe kidney IR” value in experiment [2] (50 mg/kg oral gavage, right kidney removed, left kidney clamped 45 minutes) is reported as “at least 9 days”. The “postoperative health at sacrifice” value in experiment [2] (severe kidney IR, 50 mg/kg, post-surgery Day 9, 50 mg/kg) was “in good health; also recorded: appeared robust and were gaining weight”. In experiment [2] (setting [4]), the BUN vs vehicle result is reported as “significantly reduced” and the “serum creatinine vs vehicle” value is “significantly reduced”. Also, in experiment [2] (setting [5]), the BUN result is listed as “returned to normal; also recorded: returning to normal” and the serum creatinine result is given as “returned to normal; also recorded: returning to normal”.
